Assay results reported in PubChem BioAssay (NCI).
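Assay format: 96-well plates, 48-hour exposure. Definition used: TGI = concentration required for complete inhibition of growth.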

Assays:
Assay in all cases: NCI-60 cell line screen, 48 h
HCT-116 colon = tested on: HCT-116 colon
K-562 leukemia = tested on: K-562 leukemia
LOX IMVI melanoma = tested on: LOX IMVI melanoma
MDA-MB-231 breast = tested on: MDA-MB-231 breast
MDA-N = tested on: MDA-N
NCI-H226 lung = tested on: NCI-H226 lung
OVCAR-5 ovarian = tested on: OVCAR-5 ovarian
SK-MEL-28 melanoma = tested on: SK-MEL-28 melanoma
TK-10 renal = tested on: TK-10 renal
HCC-2998 colon = tested on: HCC-2998 colon

`O=S(=O)(/N=C(\NO)Nc1ccc(Cl)cc1)c1cc2ccccc2s1` showed a TGI (HCT-116 colon) of 30.2 µM, a TGI (K-562 leukemia) of over 100 µM and a TGI (LOX IMVI melanoma) of 33.5 µM. The TGI (MDA-MB-231 breast) was 34.8 µM, the TGI (MDA-N) was 36.6 µM and the TGI (NCI-H226 lung) was 33.2 µM. For the same molecule, the TGI (OVCAR-5 ovarian) was 29.5 µM, the TGI (SK-MEL-28 melanoma) was 39.6 µM and the TGI (TK-10 renal) was 41.1 µM.
Work on `N#CC1=C(N)N(/N=C/c2ccco2)C(c2ccco2)C1(C#N)C#N` (stereo not drawn) yielded a TGI (HCC-2998 colon) of 34.7 µM, a TGI (HCT-116 colon) of 25.3 µM and a TGI (K-562 leukemia) of 85.1 µM. The TGI (LOX IMVI melanoma) was 28.2 µM, the TGI (MDA-MB-231 breast) was 38.6 µM and the TGI (MDA-N) was 37.4 µM. For the same molecule, the TGI (NCI-H226 lung) was 37.7 µM, the TGI (OVCAR-5 ovarian) was 41.7 µM and the TGI (TK-10 renal) was 32.4 µM.
In the case of `CN(C)CCCn1c(Cn2nc3ccccc3n2)nc2cc(C(F)(F)F)ccc21`, the TGI (HCC-2998 colon) is reported as 21.2 µM, the TGI (HCT-116 colon) is reported as over 100 µM and the TGI (K-562 leukemia) is reported as 36.6 µM. For the same molecule, the TGI (LOX IMVI melanoma) was 34.6 µM, the TGI (MDA-MB-231 breast) was over 100 µM and the TGI (MDA-N) was 35.6 µM. It also gave a TGI (NCI-H226 lung) of over 100 µM, a TGI (OVCAR-5 ovarian) of over 100 µM and a TGI (SK-MEL-28 melanoma) of 34.6 µM. The TGI (TK-10 renal) was 80.6 µM.
For `COC(=O)C(=O)C(C(=O)OC)C(=O)C(=O)Nc1c(Cl)cc([N+](=O)[O-])cc1Cl` (stereo not drawn), the TGI (HCC-2998 colon) was over 100 µM, the TGI (HCT-116 colon) was over 100 µM and the TGI (K-562 leukemia) was over 100 µM. For the same molecule, the TGI (LOX IMVI melanoma) was over 100 µM, the TGI (MDA-MB-231 breast) was over 100 µM and the TGI (MDA-N) was over 100 µM. For the same molecule, the TGI (NCI-H226 lung) was over 100 µM, the TGI (OVCAR-5 ovarian) was over 100 µM and the TGI (SK-MEL-28 melanoma) was over 100 µM. The TGI (TK-10 renal) was over 100 µM.
Molecule `O=c1c2c3c(sc2nc2n1NC=NN2)CCCC3` has a TGI (HCC-2998 colon) of 51.7 µM, a TGI (HCT-116 colon) of 32.4 µM and a TGI (K-562 leukemia) of 6.81 µM. For the same molecule, the TGI (LOX IMVI melanoma) was 4.88 µM, the TGI (MDA-MB-231 breast) was 19.1 µM and the TGI (MDA-N) was 30.9 µM. The TGI (NCI-H226 lung) was 49.8 µM, the TGI (OVCAR-5 ovarian) was 35.9 µM and the TGI (SK-MEL-28 melanoma) was 36.1 µM. For the same molecule, the TGI (TK-10 renal) was over 56 µM.
`COc1ccc(-c2nnc3n(C)c4ccccc4n3c2=O)cc1` gave a TGI (HCC-2998 colon) of over 100 µM, a TGI (HCT-116 colon) of over 100 µM and a TGI (LOX IMVI melanoma) of over 100 µM. For the same molecule, the TGI (MDA-MB-231 breast) was 56.2 µM, the TGI (MDA-N) was over 100 µM and the TGI (NCI-H226 lung) was over 100 µM. The TGI (OVCAR-5 ovarian) was over 100 µM, the TGI (SK-MEL-28 melanoma) was over 100 µM and the TGI (TK-10 renal) was over 100 µM.
Work on `COc1ccc2[nH]c3c(c2c1)CC(=O)N1CCC[C@H](C1)CC31OCCCO1` yielded a TGI (HCC-2998 colon) of over 100 µM, a TGI (HCT-116 colon) of over 100 µM and a TGI (MDA-MB-231 breast) of over 100 µM. It also gave a TGI (MDA-N) of over 100 µM, a TGI (NCI-H226 lung) of over 100 µM and a TGI (OVCAR-5 ovarian) of over 100 µM. The TGI (SK-MEL-28 melanoma) was over 100 µM and the TGI (TK-10 renal) was over 100 µM.
`CCOC(=O)c1nc2cc(Cl)ccc2[nH]c1=O` was tested, and the TGI (HCC-2998 colon) was over 100 µM, the TGI (HCT-116 colon) was over 100 µM and the TGI (K-562 leukemia) was over 100 µM. It also gave a TGI (LOX IMVI melanoma) of over 100 µM, a TGI (MDA-MB-231 breast) of over 100 µM and a TGI (MDA-N) of over 100 µM. It also gave a TGI (NCI-H226 lung) of over 100 µM, a TGI (OVCAR-5 ovarian) of over 100 µM and a TGI (SK-MEL-28 melanoma) of over 100 µM. The TGI (TK-10 renal) was over 100 µM.
Molecule `Cc1cc(O)c2c(c1)C(C1c3cccc(O)c3C(=O)c3c(O)cc(C)cc31)c1cccc(O)c1C2=O` (stereo not drawn) has a TGI (HCC-2998 colon) of 16.6 µM, a TGI (HCT-116 colon) of 18.9 µM and a TGI (K-562 leukemia) of 11.7 µM. It also gave a TGI (LOX IMVI melanoma) of 11.4 µM, a TGI (MDA-MB-231 breast) of 1.73 µM and a TGI (MDA-N) of 20.8 µM. For the same molecule, the TGI (NCI-H226 lung) was 2.24 µM, the TGI (OVCAR-5 ovarian) was 11.8 µM and the TGI (SK-MEL-28 melanoma) was 12.6 µM. It also gave a TGI (TK-10 renal) of 20.6 µM.
With `Cn1cc2c3ccccc3nc-2c2ccccc21` the TGI (HCC-2998 colon) was 3.04 µM, the TGI (HCT-116 colon) was 3.2 µM and the TGI (K-562 leukemia) was 9.65 µM. The TGI (LOX IMVI melanoma) was 4.36 µM, the TGI (MDA-MB-231 breast) was 5.73 µM and the TGI (MDA-N) was 5.95 µM. For the same molecule, the TGI (OVCAR-5 ovarian) was 6.84 µM, the TGI (SK-MEL-28 melanoma) was 6.43 µM and the TGI (TK-10 renal) was 20.6 µM.
For `CCCCCCCCCCCCOC1C(COCCN2CCCCC2)OC2OC(C)(C)OC21` (stereo not drawn), the TGI (HCC-2998 colon) was 3.01 µM, the TGI (HCT-116 colon) was 3.07 µM and the TGI (LOX IMVI melanoma) was 3.01 µM. The TGI (MDA-MB-231 breast) was 3.43 µM, the TGI (MDA-N) was 2.9 µM and the TGI (NCI-H226 lung) was 17.6 µM. The TGI (OVCAR-5 ovarian) was 4.23 µM, the TGI (SK-MEL-28 melanoma) was 3.25 µM and the TGI (TK-10 renal) was 3.55 µM.
